Measurements reported in publication PMC9841524, “Structure-Based Rational Design of Small α-Helical Peptides with Broad-Spectrum Activity against Multidrug-Resistant Pathogens” (Journal of Medicinal Chemistry, 2022).
≈ marks a conversion by molar mass, not a printed value. Where two headings read alike, the source gives them in different places. Where no end group is shown, it is not given here.

Key:
E. faecalis (ATCC 51575) = experiment: microbe, parasite or virus in culture; conditions: Enterococcus faecalis, ATCC51575, 24 h, read-out: MIC, E. faecalis (ATCC 51575)
Protocol: (§1) Description of the characteristics and growth conditions of various bacterial strains used in the study are provided in the Supporting Information (Table S3). Antibacterial susceptibility testing was carried out using a standard microtiter dilution method recommended by the clinical and laboratory standard institute (CLSI) and measured as a minimum inhibitory concentration (MIC), the lowest peptide concentration that inhibited bacterial growth. Briefly, the overnight grown cultures in the recommended broth for each bacterial strain were diluted in cation-adjusted Mueller Hinton Broth (CAMHB) to give an inoculum of 10^6 colony-forming units (CFU)/mL. A 2-fold serially diluted test peptide solution (100 μL) was added to the microtiter plates. After adding bacterial suspension (100 μL), the plates were incubated at 37 °C for 24 h, and the MICs were determined. The same protocol was used to determine the MICs in the presence of salts and serum except using the media supplemented with various cationic salts (150 mM NaCl, 4.5 mM KCl, 6 mM NH4Cl, 1 mM MgCl2, and 2 mM CaCl2) or 25% FBS. The data was acquired from three independent assays performed in triplicate.
(§2) The bacterial strains employed in this study were obtained from the American Type Culture Collection (ATCC). Each strain was propagated as recommended by the ATCC, and each strain was stored as a frozen glycerol stock at -80°C. A bacterial colony was grown on the appropriate agar as indicated in Table S1 and was used to inoculate the appropriate broth. The culture was incubated at the appropriate conditions, as mentioned in Table S1. Following the incubation, the culture was diluted to an optical density 625 nm (OD625) of 0.1 in cation adjusted Mueller Hinton Broth (CAMHB), which is equivalent to 1 × 10^8 CFU/mL. The culture was further diluted to 1 × 10^6 CFU/mL, which was used to conduct the MIC determination assay. For the S. pneumoniae strains, CAMHB + 2.5% lysed horse blood was required for the assay. The strains with their […]
(§3) Table S3. Description of the characteristics and growth conditions of various bacterial strains

E. faecium (ATCC 700221) = experiment: microbe, parasite or virus in culture; conditions: Enterococcus faecium, ATCC700221, 24 h, read-out: MIC, E. faecium (ATCC 700221)
Protocol: as §1, §2, §3

E. faecium (ATCC 27270) = experiment: microbe, parasite or virus in culture; conditions: Enterococcus faecium, ATCC27270, 24 h, read-out: MIC, E. faecium (ATCC 27270)
Protocol: as §1, §2, §3

[1] = test system: human red blood cells (hRBCs); experiment: Hemolytic assay; assay type: cell-based; conditions: 2 h, 37 °C
Summary of the method: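 Peptides in 2-fold serial dilutions mixed 1:1 with 4% hRBC suspension in PBS and held 2 h at 37 °C unshaken. Hemoglobin release in supernatant read at 567 nm; % hemolysis scaled between PBS (0%) and 1% Triton X-100 (100%).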

[2] = test system: K. pneumoniae (ATCCBAA-1705); experiment: MIC, standard microtiter dilution (CLSI); assay type: cell-based, Klebsiella pneumoniae; conditions: broth microdilution (CLSI), CAMHB, 37 °C, 24 h
Summary of the method: (§4)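 Broth microdilution per CLSI: overnight cultures diluted in cation-adjusted Mueller Hinton Broth to 10^6 CFU/mL, mixed with 2-fold serial peptide dilutions, incubated 37 °C for 24 h. MIC = lowest peptide concentration inhibiting growth. Three independent assays in triplicate.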

[3] = CD spectroscopy, helicity; assay type: physicochemical; set-up: key to Δ[θ]222 induced by TFE / Δ[θ]222 induced by Liposomes: mean residue molar ellipticity, mdeg cm2/(dmol × res); conditions: for [θ]222 mean residue molar ellipticity, TFE / [θ]222 mean residue molar ellipticity, Liposomes / [θ]222 mean residue molar ellipticity, PBS: CD at 222 nm, 25 °C; for [θ]222 mean residue molar ellipticity, TFE: aqueous buffer containing 50% TFE; for [θ]222 mean residue molar ellipticity, Liposomes / Δ[θ]222 induced by Liposomes: bacterial membrane mimicking liposomes; for [θ]222 mean residue molar ellipticity, Liposomes: peptide:lipid molar ratio 1:1.05; for [θ]222 mean residue molar ellipticity, PBS: phosphate buffer saline pH 7.0; for Δ[θ]222 induced by TFE / Δ[θ]222 induced by Liposomes: difference to PBS; for Δ[θ]222 induced by TFE: 50% TFE; for % of helicity induced by TFE: increase in molar ellipticity at 222 nm in the presence of 50% TFE; for % of helicity induced by Liposomes: increase in molar ellipticity at 222 nm in the presence of liposomes;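 on % of helicity induced by Liposomes: share of the total helicity with liposomes gained over the same peptide in PBS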;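 on % of helicity induced by TFE: share of the total helicity in TFE gained over the same peptide in PBS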
Protocol: The CD spectra of peptides were recorded using a Jasco J-1500 CD spectrophotometer (Jasco, Easton, MD) at 25 °C with a 1 mm path length cell. Wavelengths from 190 to 260 nm were scanned with 1.0 nm step resolution, 100 nm/min speed, 0.4 s response time, and 1 nm bandwidth. CD spectra of the peptides were collected and averaged over three scans in 10 mM sodium phosphate buffer (pH 7.2), helix-inducing solvent 50% TFE (v/v), and bacterial mimic liposomes (75 μM lipid). Spectra were corrected by subtracting a baseline spectrum containing only buffer or 50% TFE or liposomes. The mean residue molar ellipticity was calculated using the formula [drawing 3] where Ab222 is the absorbance observed at 222 nm, MRW is the mean residue molecular weight, C is the concentration in mg/mL, and L is the path length.
Table S1. RP-HPLC retention times and CD spectroscopy analysis of the selected peptides Peptide tR (min)a [θ]222b Δ[θ]222 induced by % of helicity inducedc by PBS TFE Liposomes TFE Liposomes TFE Liposomes […]
atR (min) denotes the retention time at 25°C by RP-HPLC. bThe mean residue molar ellipticity [θ] 222 (mdeg cm2/(dmol × res)) at 222 nm was measured at 25 °C in phosphate buffer saline (PBS, pH 7.0), in aqueous buﬀer containing 50% TFE (TFE), or in presence of bacterial membrane mimicking liposomes (peptide:lipid […]
c% helix induced is the increase in the molar ellipticity at 222 nm (in percentage) of a peptide in the presence of TFE or liposomes.

E. coli (ATCC 25922) = conditions: broth microdilution (CLSI), CAMHB, 37 °C, 24 h
Summary of the method: as §4

MRSA (ATCC BAA-1556) = conditions: broth microdilution (CLSI), CAMHB, 37 °C, 24 h
Summary of the method: as §4

[4] = test system: P. aeruginosa (ATCC 27883); experiment: MIC, standard microtiter dilution (CLSI); assay type: cell-based, Pseudomonas aeruginosa; conditions: broth microdilution (CLSI), CAMHB, 37 °C, 24 h
Summary of the method: as §4

S. aureus (ATCC 29213) = experiment: MIC, standard microtiter dilution (CLSI); assay type: cell-based; conditions: for MIC, S. aureus (ATCC 29213): broth microdilution (CLSI), CAMHB, 37 °C, 24 h
Summary of the method: as §4

[5] = Relative hydrophobicity as RP-HPLC retention time; assay type: physicochemical; conditions: chromatographic, Phenomenex Luna C18 4 μm 150 × 4.6 mm, linear AB gradient 1% acetonitrile/min, 0.3 mL/min, A water 0.1% TFA, B acetonitrile 0.1% TFA, 25 °C
Protocol: The purity analysis of the peptides was conducted on a RP-HPLC system (Shimadzu; LC-20ADXR) by using a Phenomenex (Luna) analytical C18 column (4 μm, 150 × 4.6 mm). The mass of the purified peptides was determined in the positive-ion mode using Q-TOF LC/MS (Compass Hystar 4.1, Bruker, USA). The purity (>95%) and mass data of all the synthesized peptides are provided in the Supporting Information.
8. Comparative Hydrophobicity analysis
The purity of all synthesized peptides was determined using reverse phase analytical HPLC
(Shimadzu; LC-20ADXR). Below mentioned are the conditions used to conduct the purity
Column: Phenomenex (Luna), 4 um, C18, 150 × 4.6 mm
Mobile Phase: Buffer A-Water containing 0.1% TFA,
Buffer B-Acetonitrile containing 0.1% TFA
Figure S52. HPLC chromatogram of 6a.
(1 picture or pasted object on this page, not shown here)

[6] = hRBC suspension 4% in PBS, hemoglobin release at 567 nm, 1% Triton X-100 = 100%
[7] = value in parentheses (μM), hRBC 4% in PBS, 567 nm
[8] = 10^6 CFU/mL, highest MIC of three independent experiments in triplicate

Row | Molecule | HC50 (concentration at which 50% hemolysis was observed) [1, 6] | HC50 (concentration at which 50% hemolysis was observed) [1, 7] | MIC, K. pneumoniae (ATCCBAA-1705) [2, 8] | MIC, K. pneumoniae (ATCCBAA-1705) ([2]; value in parentheses (μM)) | [θ]222 mean residue molar ellipticity, TFE [3] | [θ]222 mean residue molar ellipticity, Liposomes [3] | [θ]222 mean residue molar ellipticity, PBS [3] | Δ[θ]222 induced by TFE [3] | Δ[θ]222 induced by Liposomes [3] | % of helicity induced by TFE [3] | % of helicity induced by Liposomes [3] | MIC, E. coli (ATCC 25922) (E. coli (ATCC 25922); [8]) | MIC, E. coli (ATCC 25922) (E. coli (ATCC 25922); value in parentheses (μM)) | MIC, MRSA (ATCC BAA-1556) (MRSA (ATCC BAA-1556); [8]) | MIC, MRSA (ATCC BAA-1556) (MRSA (ATCC BAA-1556); value in parentheses (μM)) | MIC, P. aeruginosa (ATCC 27883) [4, 8] | MIC, P. aeruginosa (ATCC 27883) ([4]; value in parentheses (μM)) | MIC, S. aureus (ATCC 29213) (S. aureus (ATCC 29213); [8]) | MIC, S. aureus (ATCC 29213) (S. aureus (ATCC 29213); value in parentheses (μM)) | tR, RP-HPLC retention time (measure of overall hydrophobicity) [5] | further results
1 | CN[C@H](CC(C)C)C(=O)N[C@H]1C(=O)N[C@@H](CC(N)=O)C(=O)N[C@H]2C(=O)N[C@H]3C(=O)N[C@H](C(=O)N[C@H](C(=O)O)c4cc(O)cc(O)c4-c4cc3ccc4O)[C@H](O)c3ccc(c(Cl)c3)Oc3cc2cc(c3O[C@@H]2O[C@H](CO)[C@@H](O)[C@H](O)[C@H]2O[C@H]2C[C@](C)(N)[C@H](O)[C@H](C)O2)Oc2ccc(cc2Cl)[C@H]1O [vancomycin, reference compound] |  |  |  |  |  |  |  |  |  |  |  |  |  |  |  |  |  |  |  |  | MIC (E. faecalis (ATCC 51575)): > 50 µg/mL; MIC (E. faecium (ATCC 700221)): > 50 µg/mL; MIC (E. faecium (ATCC 27270)): 1.5 µg/mL (≈ 1.04 µM)
2 | KWAKKWWKWWKK-NH2 [6e] | 360 µg/mL | 201.32 µM | 50 µg/mL | 27.96 µM | -18419 mdeg cm2/(dmol × res) | -13181 mdeg cm2/(dmol × res) | -7968 mdeg cm2/(dmol × res) | -10451 | -5213 | 56.74% | 39.55% | 25 µg/mL | 13.98 µM | 12.5 µg/mL | 6.99 µM | 25 µg/mL | 13.98 µM | 12.5 µg/mL | 6.99 µM | 29.87 min | 
3 | KWLKKWWKWWKK-NH2 [8e] | 240 µg/mL | 131.13 µM | 25 µg/mL | 13.66 µM | -11148 mdeg cm2/(dmol × res) | -15042 mdeg cm2/(dmol × res) | -5411 mdeg cm2/(dmol × res) | -5736 | -9630 | 51.45% | 64.02% | 12.5 µg/mL | 6.83 µM | 12.5 µg/mL | 6.83 µM | 12.5 µg/mL | 6.83 µM | 12.5 µg/mL | 6.83 µM | 34.10 min | 
4 | RWARRWARWWRR-NH2 [6a] | 230 µg/mL | 124.92 µM | > 100 µg/mL | > 54.31 µM | -13346 mdeg cm2/(dmol × res) | -13245 mdeg cm2/(dmol × res) | -6737 mdeg cm2/(dmol × res) | -6608 | -6508 | 49.51% | 49.13% | > 100 µg/mL | > 54.31 µM | 50 µg/mL | 27.16 µM | 100 µg/mL | 54.31 µM | 50 µg/mL | 27.16 µM | 30.42 min | increase in helicity in the presence of liposomes, as compared to PBS ([3]; CD): about 50%; MIC against S. aureus (S. aureus (ATCC 29213)): 50 µg/mL
